Broadly, the Tmax is the time from dosing to the highest level. A word on the MRT: it is the average time that molecules of a dose stay in the body. What is called EC50 is the concentration needed to bring the measured effect to its halfway point. Read a high EC50 as a less potent agent. One may read the IC50 as the concentration that gives 50% inhibition.

Read-outs that look alike come from different tables or passages of the source. Where only a bound is given, the exact number is not on record here.

From patent publication EP4332093A1, “SALT CONTAINING PIPERAZINE POLYCYCLIC DERIVATIVE, CRYSTAL FORM THEREOF, PREPARATION METHOD THEREFOR, AND USE THEREOF” (Shanghai Hansoh Biomedical Co., Ltd., priority 2021, dated 2022) come the findings set out here.

Data set [1] is described as follows: Pharmacokinetic assay in Balb/c mice (plasma and brain tissue). Type of data set: in vivo. The settings on record: male, mouse, po, p.o. 5 mg/kg; for AUC(0-t): read-out: Area under curve AUC0-t; for Tmax: read-out: Peak time tmax; for Cmax: read-out: Plasma concentration Cmax; for AUC(0-inf): read-out: Area under curve AUC0-∞; for MRT: read-out: Average residence time MRT; for half-life: read-out: Half life t1/2 (converted). Here is the method:
Balb/c mice were used as test animals. The pharmacokinetic behavior in mouse body (plasma and brain tissue) of the compounds of Examples of the present invention was studied at an oral administration dose of 5 mg/kg.
Compounds of the Examples of the present invention, prepared by the applicant.
Male Balb/c mice (12 mice per group), purchased from Shanghai Jiesijie Laboratory Animal Co., LTD, with Certificate No.: SCXK (Shanghai) 2013-0006 N0.311620400001794.
The test compound was dissolved in 0.5% CMC-Na (1% Tween80) by sonication to formulate a clear solution or homogeneous suspension.
After an overnight fast, male Balb/c mice (12 mice per group) were administered p.o. with the test compound at an administration dose of 5 mg/kg and an administration volume of 10 mL/kg.
0.2 mL of blood was taken from the heart of the mouse before administration and at 1, 2, 4, 8 and 24 hours after administration, and the mice were sacrificed with CO2. The samples were stored in EDTA-K2 tubes, and centrifuged for 6 minutes at 4°C, 6000 rpm to separate the plasma. The plasma samples were stored at -80°C. Whole brain tissue was taken out, weighed, placed in a 2 mL centrifuge tube, and stored at -80°C.
• 1) 160 µL of acetonitrile was added to 40 µL of the plasma sample for precipitation, and then the mixture was centrifuged for 5 to 20 minutes at 3500 × g. • 2) 90 µL of acetonitrile containing internal standard (100 ng/mL) was added to 30 µL of the plasma and brain homogenate sample for precipitation, and then the mixture was centrifuged for 8 minutes at 13000 rpm. • 3) 70 µL of water was added to 70 µL of the treated supernatant and mixed by vortex for 10 minutes. 20 µL of the supernatant was taken to analyze the concentration of the test compound by LC/MS/MS. LC/MS/MS analytical instrument: AB Sciex API 4000 Qtrap.
• Liquid chromatography condition: Shimadzu LC-20AD pump • Chromatographic column: Agilent ZORBAX XDB-C18 (50×2.1 mm, 3.5 µm); Mobile phase: Eluent A was 0.1% formic acid in water, and Eluent B was acetonitrile • Flow rate: 0.4 mL/min • Elution time: 0-4.0 minutes, the eluent is as follows:
The main parameters of pharmacokinetics were calculated by WinNonlin 6.1. Table 17: Experimental results of pharmacokinetic assay in mice

Another data set deals with T1, D3 receptor (Homo sapiens, UniProt P35462).
T1 construct: expressed in transfected cells
The experiment in a line: cAMP content in cells stably expressing D3 receptors (CHO-D3, forskolin, HTRF). Type of data set: cell-based. Here is the method:
Determination of the effect of the compounds of the present invention on cAMP content in cells stably expressing D3 receptors
To determine the activation effect of the compounds on D3 receptor.
• 1. Preparation of the buffer: 1* HBSS + 20mM HEPES + 0.1% BSA + 500 µM IBMX. Complete medium: Ham's F12K + 10% fetal bovine serum +1* penicillin-streptomycin + 400 µg/mL G418. • 2. CHO-D3 cells were cultured in the complete medium at 37°C, 5% CO2. After TrypLE digestion, the cells were resuspended in the experimental buffer, and seeded into a 384-well cell culture plate at a seeding density of 8000 cells per well. • 3. The experimental buffer (1*HBSS, 0.1% BSA, 20 mM HEPES and 500 µM IBMX) was prepared. The compound was diluted with the buffer. 2.5 µL of the compound solution was added to each well, and the plate was incubated at 37°C for 10 minutes. The forskolin was diluted to 8 µM (8*) with the experimental buffer. 2.5 µL of the diluted 8* forskolin was added, and the plate was incubated at 37°C for 30 minutes. cAMP-d2 and Anti-cAMP-Eu^3+ were thawed, and diluted by 20-fold with the lysis buffer. 10 µL of cAMP-d2 was added to the experimental well, followed by the addition of 10 µL of Anti-cAMP-Eu^3+. The reaction plate was centrifuged at 200 g for 30 s at room temperature, and left to stand at 25°C for 1 h. Data was collected using Envision.
For orientation: TR-FRET usually uses a lanthanide donor and a delayed reading to cut background.

Another data set deals with 5-HT2A receptor (Homo sapiens, UniProt P28223). The experiment in a line: Calcium ion mobility in cells stably expressing 5-HT2A receptors (Flp-In-CHO-5HT2A, FLIPR). Type of data set: cell-based. Further details: expressed in transfected cells. The settings on record: Flp-In-CHO-5HT2A stable pool, 5HT stimulation. Here is the method: Determination of the effect of the compounds of the present invention on calcium ion mobility in cells stably expressing 5-HT2A receptors
To determine the inhibitory effect of the compounds on 5-HT2A receptor.
• 1) Preparation of the buffer: 1 x HBSS, 20 mM HEPES, 2.5 mM probenecid (probenecid was 400 mM stock in 1 M NaOH), 0.1% BSA. Probenecid and BSA were added fresh on the day of the experiment. Experimental buffers include dye buffer and compound dilution buffer. • 2) Cell culture medium: Ham's F-12K + 10% fetal bovine serum + 600 µg/ml hygromycin B + 1* penicillin-streptomycin. Seeding medium: Ham's F-12K + 10% dialysis serum; Assay buffer: 1 x HBSS + 20 mM HEPES; Cell line: Flp-In-CHO-5HT2A stable pool. • 3) The cells were cultured in the complete medium at 37°C, 5% CO2 to 70%-90% confluency. The cells were digested with TrypLE, seeded to the 384-well assay plate at a density of 1 × 10^4 cells/well, and incubated for 16 to 24 hours (at least overnight). • 4) 20X Component A was thawed to room temperature, diluted to 2X working concentration (containing 5mM Probenecid) with the assay buffer, and placed at room temperature for later use. • 5) The cell culture plate was taken out and left to stand at room temperature for 10 min. […] 10 µl of diluted 5HT was add to each experimental well using FLIPR Tetra, and the values were read.
The calcium signal values were determined by FLIPR. The calculated output for each sampling time point in the experiment was the ratio of the 340/510 nm wavelength signals to 380/510 nm wavelength signals. The maximum minus minimum calculation was derived from the ratio signal curve. The percent inhibition rate and ten-point concentration data were fitted to the parametric nonlinear logistic equation by using GraphPad prism to calculate the IC50 values of the compound.

The nature of data set [2]: Solid stability experiment of crystal forms of salt (5 and 10 days). Type of data set: physicochemical. Here is the method: About 1 mg of different crystal forms of salt were taken and placed under the conditions of light 5000lx, high temperature 60°C, high humidity 92.5%RH, high temperature and high humidity 50°C 75%RH for 5 days and 10 days. The salt content was determined by HPLC and external standard method, and the change of relevant substances was calculated by chromatographic peak area normalization method.

The mark [3] stands for this setting: High humidity (92.5% RH), 5 Days.
[4] abbreviates: High humidity (92.5% RH), 10 Days.
Where [5] appears, read: High temperature (60°C), 5 Days.
Setting [6] is: High temperature (60°C), 10 Days.
Where [7] appears, read: High temperature and high humidity (50°C 75%RH), 5 Days.
Setting [8] is: High temperature and high humidity (50°C 75%RH), 10 Days.

5-HT2A receptor, sequence (P28223 whole entry): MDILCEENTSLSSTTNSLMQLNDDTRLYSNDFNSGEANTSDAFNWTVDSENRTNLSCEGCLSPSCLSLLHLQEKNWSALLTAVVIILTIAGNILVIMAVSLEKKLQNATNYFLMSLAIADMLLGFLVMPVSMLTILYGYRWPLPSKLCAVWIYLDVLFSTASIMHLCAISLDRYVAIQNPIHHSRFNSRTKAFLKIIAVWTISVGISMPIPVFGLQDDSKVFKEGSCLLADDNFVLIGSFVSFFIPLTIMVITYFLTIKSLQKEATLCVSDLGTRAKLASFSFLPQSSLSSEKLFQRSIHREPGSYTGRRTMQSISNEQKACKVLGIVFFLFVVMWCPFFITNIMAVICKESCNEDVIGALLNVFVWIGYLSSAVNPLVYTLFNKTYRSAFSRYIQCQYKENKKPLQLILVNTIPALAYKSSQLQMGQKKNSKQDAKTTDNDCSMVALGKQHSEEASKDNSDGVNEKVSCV
T1 sequence (P35462 whole entry): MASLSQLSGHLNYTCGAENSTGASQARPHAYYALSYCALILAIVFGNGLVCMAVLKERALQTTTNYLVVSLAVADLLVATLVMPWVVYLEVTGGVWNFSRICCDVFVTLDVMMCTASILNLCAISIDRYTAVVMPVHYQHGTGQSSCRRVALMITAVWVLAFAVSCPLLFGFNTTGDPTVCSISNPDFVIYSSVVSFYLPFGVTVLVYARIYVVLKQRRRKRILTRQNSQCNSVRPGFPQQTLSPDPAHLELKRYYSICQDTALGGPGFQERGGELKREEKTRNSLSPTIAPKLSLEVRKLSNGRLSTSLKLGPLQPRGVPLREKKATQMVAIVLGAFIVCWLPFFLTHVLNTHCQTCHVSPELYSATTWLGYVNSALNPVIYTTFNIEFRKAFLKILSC

On to `O=C(NC1CC(CCN2CCN(c3cccc(Cl)c3Cl)CC2)C1)c1nccs1` (centres unmarked) [Example 7, N-(3-(2-(4-(2,3-Dichlorophenyl)piperazin-1-yl)ethyl)cyclobutyl)thiazole-2-carboxamide], for which, in data set [1] (Brain), the AUC(0-t) is 2080 ng·h/mL, the Tmax is 1 h and the Cmax was determined as 569 ng/mL. Also, in data set [1] (Plasma), the AUC(0-t) was determined as 503 ng·h/mL, the AUC(0-inf) stood at 541 ng·h/mL, the MRT amounted to 2.8 h and the half-life is 2.1 h. In data set [1] (Plasma), the Tmax stood at 0.5 h and the Cmax is 254 ng/mL. On D3 receptor, this molecule yielded an EC50 of 2.8 nM. In addition, at 5-HT2A receptor, the IC50 was determined as 6.44 nM.
As to `O=C(NC1CC(CCN2CCN(c3cccc(Cl)c3Cl)CC2)C1)C1(O)CC1` (centres unmarked) [Example 6, N-(3-(2-(4-(2,3-Dichlorophenyl)piperazin-1-yl)ethyl)cyclobutyl)-1-hydroxycyclopro pane-1-carboxamide], in data set [1] (Brain), the AUC(0-t) is 1970 ng·h/mL, the Tmax stood at 1 h and the Cmax was determined as 464 ng/mL. In data set [1] (Plasma), the AUC(0-t) was determined as 2330 ng·h/mL, the AUC(0-inf) was determined as 2460 ng·h/mL, the mean residence time MRT was 2.8 h and the half-life is 1.9 h. Further, in data set [1] (Plasma), the Tmax amounted to 0.5 h and the Cmax is 865 ng/mL. The molecule also gave an EC50 on D3 receptor of 2.9 nM. At 5-HT2A receptor, the IC50 was determined as 13.1 nM.
On to `O=C(N[C@H]1C[C@H](CCN2CCN(c3cccc(Cl)c3Cl)CC2)C1)c1ncco1` [crystal form B of p-toluenesulfonate], for which the “crystal form stability (single impurity)” value in data set [2] (light conditions (5000lx)) is recorded as “single impurity increases significantly”. Moreover, the crystal form stability result in data set [2] (other conditions (60°C, 92.5% RH, 50°C 75% RH)) is “stable”.
On to `O=C(N[C@H]1C[C@H](CCN2CCN(c3cccc(Cl)c3Cl)CC2)C1)c1ncco1` [Crystal form A of hydrochl oride], for which the “Maximum single impurity increase%” value in data set [2] (setting [3]) is 0.06%; in data set [2] (setting [4]), less than 0.02%; in data set [2] (setting [5]) it was less than 0.02%; in data set [2] (setting [6]) it was less than 0.02%; in data set [2] (setting [7]), less than 0.02%; in data set [2] (setting [8]) it was less than 0.02%. Besides, the “Maximum single impurity increase%” value was less than 0.02% in data set [2] (Light (5000lx), 5 Days) and less than 0.02% in data set [2] (Light (5000lx), 10 Days). Moreover, the Total impurity increase% in data set [2] (setting [3]) was 0.06%; in data set [2] (setting [4]) it was less than 0.02%; in data set [2] (setting [5]) it was less than 0.02%; in data set [2] (setting [6]), 0.03%; in data set [2] (setting [7]), less than 0.02%; in data set [2] (setting [8]), less than 0.02%. Moreover, the Total impurity increase% is on record as less than 0.02% in data set [2] (Light (5000lx), 5 Days) and less than 0.02% in data set [2] (Light (5000lx), 10 Days).
Consider `O=C(N[C@H]1C[C@H](CCN2CCN(c3cccc(Cl)c3Cl)CC2)C1)c1ncco1` [Crystal form B of p-toluene sulfonate], for which the “Maximum single impurity increase%” value in data set [2] (setting [3]) is less than 0.02%; in data set [2] (Light (5000lx), 5 Days), 0.13%; in data set [2] (Light (5000lx), 10 Days), 0.13%. Moreover, the Total impurity increase% in data set [2] (setting [3]) was less than 0.02%; in data set [2] (setting [6]), less than 0.02%; in data set [2] (Light (5000lx), 5 Days) it was 0.03%; in data set [2] (Light (5000lx), 10 Days) it was 0.19%.
